Assays:
NIH/3T3 cells = assay: Cytotoxicity of particles (P) without active ingredient, cell survival by MTT test; assay type: cell-based, Mus musculus; parameters: unit: % of control; details: DMSO, control = 100.00
Experimental: The cytotoxicity of particles (P) prepared according to 1.2 hereabove—without any active ingredient encapsulated (hereafter called NCB)—was assessed on NIH/3T3 cells (fibroblasts of mice Mus musculus). The […] were exposed to various particle concentrations, during 4, 24, 48 or 72 hours. The cell survival was determined by the MTT test.

[1] = Encapsulation yield, indirect quantification in external water after centrifugation; assay type: physicochemical; details: for encapsulation yield (plateau): hydrophilic molecule in aqueous core, tp = 2 h, highest monomer (TDI) contents
Excerpt: (i) Hydrophilic materials, eventually, have to be shared out into the w/o nanoemulsions water droplets, and it may be done right from the start included in the water phase of the macro-emulsions preparations. Another higher effective manner consists in injecting a very small volume (no more than 2% (v./v.)) of very concentrated aqueous solution, in the microemulsion maintained at the PIT, after the temperature cycling, and before the isopentane dilution. The droplet injected in the (still) stirred microemulsion, very rapidly integrates the aqueous part of the bicontinuous network. As a result of the oil dilution, the nanoemulsion immediately forms, allowing a very homogeneous dispersion in oil of the injected hydrophilic molecule. Incorporating the hydrophilic species through this original manner, eventually prevents the molecules degradation during processing potentially due to the temperature cycling treatment. The hydrophilic model molecules were chosen with very different molecular weight: The first one is a labile dye, methylene blue (MB), the second is a protein, the bovin serum albumin fluorecein isothiocyanate labeled (BSA-FITC) and the last one is a fluorescent compound, Doxorubicin Chlorhydrate (DOX), which is an anti-cancer drug.
(ii) On the other hand, the lipophilic species were introduced in the oil phase of the nanoemulsion, after the chosen time of polymerization (to maximally prevent the potential interactions with the monomer), and before the stage of isopentane evaporation. Thereby, after the complete isopentane evaporation, the lipophilic added materials will be equally shared onto the droplets enclosed in the residual mineral oil, that is, trapped in the amorphous oil/non-ionic surfactant matrix. It finally appears as a marker of the residual mineral oil location, and determining a significant encapsulation yield should support the proposed multi-functional water/oil structure. […] It is important to note here, that these processes of nanocapsule formulation containing hydrophilic and lipophilic agents can be still considered as only involving a low quantity of energy (often called ‘low-energy’ methods). […]
All the quantifications were performed following an indirect method, after separating the external water to the nanocapsules by centrifugation (30 min, 14500 rpm), it was freeze-dried (RP2V, SGD, Le Coudray Saint-Germer, France) to ensure the destruction of the potentially remaining nanocapsules (and also to prevent their additional light adsorption in the quantification process). Next, the freeze-dried samples are solubilized in dichloromethane (DCM), and the different incorporated molecules except DOX which are present in the external water are simply quantified using a Spectrophotometer UV-visible Uvikon 922 Spectrophotometer (Bio-Tek Koutron instruments, Saint-Quentin-en-Yvelines, France). DOX was quantified using a spectrofluorimeter (Fluoroskan Ascent FL, type 374, Thermo Electron Corporation, Finland). […]
Owing to the real challenge that constitutes the encapsulation of hydrophilic agent into nanocapsules themselves dispersed in aqueous continuous phase, the first result will concern the extent in which the selected hydrophilic species, methylene blue and BSA-FITC, can be encapsulated into such colloids. The molecules incorporation during the nanoemulsion generation step as well as the molecule quantification for determining the encapsulation yield, follow the above-described procedures. […]

[2] = Doxorubicin release kinetics from particles (P), dialysis against PBS; assay type: physicochemical; details: DOX-loaded particles (P), dialysis 15 kDa membrane, PBS pH 7.4, 37° C.
Experimental: To establish the drug release kinetics (see FIG. 8), 2 mL of freshly prepared suspension containing DOX-loaded particle (P), enclosed into a dialysis 15 kDa membrane (Spectra/Por® Membranes, Fisher Bioblock Scientific, Illkirch, France), were added to 40 mL of phosphate buffered saline (PBS, pH 7.4) from Sigma. The flack was weakly mechanically stirred (125 rpm) in darkness, at 37° C. (in a boiler, Julabo SW22, JULABO Labortechnik GmbH, Seelbach, Germany). Next, 500 μL of release medium were collected at specified time points and the DOX concentrations were determined by spectrofluorimetry, as previously described. This collected volume was systematically replaced by the same volume of fresh PBS for insuring the “sink” experimental conditions.

Compound: C[S+](C)[O-] [DMSO]
- cell survival (MTT test), mean (NIH/3T3 cells; 4 H exposure): 46.75
- cell survival (MTT test), mean (NIH/3T3 cells; 24 H exposure): 10.22
- cell survival (MTT test), mean (NIH/3T3 cells; 48 H exposure): 4.79
- cell survival (MTT test), mean (NIH/3T3 cells; 72 H exposure): 5.00

Compound: COc1cccc2c1C(=O)c1c(O)c3c(c(O)c1C2=O)C[C@@](O)(C(=O)CO)C[C@@H]3O[C@H]1C[C@H](N)[C@H](O)[C@H](C)O1 [DOX, Doxorubicin Chlorhydrate]
- yield of encapsulated doxorubicin ([1]; in aqueous droplets (no monomer)): 30%
- yield of encapsulated doxorubicin ([1]; in polymeric nanocapsules (interfacial polymerization with tolylene 2,4-diisocyanate)): 70%
- release with time (maximum given by the curve fit) [2]: ~100%

Compound: CN(C)c1ccc2nc3ccc(=[N+](C)C)cc-3sc2c1 [MB, Methylene Blue]
- encapsulation yield (plateau) [1]: about 0.9

Compound: Oc1ccc2ccccc2c1N=Nc1ccc(N=Nc2ccccc2)cc1 [RS, red Soudan III]
- encapsulation yield ([1]; lipophilic molecule in oil shell, simultaneously encapsulated with MB, tp 2 hours, no influence of monomer amount): around 0.92

Compound: Bovine Serum Albumin-Fluorescein Isothiocyanate labeled [BSA-FITC]
- encapsulation yield (plateau) [1]: about 0.9

Source: US9522121B2, “Aqueous-core lipid nanocapsules for encapsulating hydrophilic and/or lipophilic molecules” (UNIVERSITE D'ANGERS, priority 2007, dated 2016)
